Data set [1] is described as follows: Pharmacokinetics in SD rats. The format is in vivo. The settings on record: rat, IV Inf (15 minutes); for half-life: iv, read-out: T1/2 (converted); for clearance: read-out: Clp; for Vd: read-out: Vdss. As to the method:
Male SD Rats were dosed with each heterotandem Bicycle peptide complex formulated in 25 mM Histidine HCl, 10% sucrose pH 7 by IV bolus or IV infusion (15 minutes). Serial bleeding (about 80 μL blood/time point) was performed via submandibular or saphenous vein at each time point. All blood samples were immediately transferred into prechilled microcentrifuge tubes containing 2 μL K2-EDTA (0.5M) as anti-coagulant and placed on wet ice. Blood samples were immediately processed for plasma by centrifugation at approximately 4° C., 3000 g. The precipitant including internal standard was immediately added into the plasma, mixed well and centrifuged at 12,000 rpm, 4° C. for 10 minutes. The supernatant was transferred into pre-labeled polypropylene microcentrifuge tubes, and then quick-frozen over dry ice. The samples were stored at […] or below as needed until analysis. 7.5 μL of the supernatant samples were directly injected for LC-MS/MS analysis using an Orbitrap Q Exactive in positive ion mode to determine the concentrations of analyte. Plasma concentration versus time data were analyzed by non-compartmental approaches using the Phoenix WinNonlin 6.3 software program. C0, CI, Vdss, T½, AUC(0-last), AUC(0-inf), MRT(0-last), MRT(0-inf) and graphs of plasma concentration versus time profile were reported.

For the next data set, the system named is MC38 tumors. The data set can be described thus: Anti-tumor activity of EphA2/CD137 complexes in syngeneic MC38 tumor model. Particulars: day 28. The format is in vivo, C57BL/6J-hCD137 mice. As to the method:
6-8 weeks old C57BL/6J-hCD137 female mice were inoculated in the flank with 1×10^6 syngeneic MC38 cells. When tumors reached 76 mm^3 size on average, mice were randomized to receive vehicle or BCY12491 (intraperitoneal administration). BCY12491 was administered (n=6 mice/treatment cohort) at either 5 mg/kg or 15 mg/kg either daily (QD) or every three days (Q3D). QD dosed mice received 22 doses of BCY12491 and Q3D dosed mice received 8 doses of BCY12491. Tumor growth was monitored by caliper measurements until day 73 after treatment initiation. The results of this experiment may be seen in FIG. 9 where it can be seen that the effect of BCY12491 on tumor growth becomes apparent in the first two weeks of the dosing period reducing the tumor growth and causing reduction of volumes of many of the treated tumors. By day 41, 15 out of 24 BCY12491 treated animals had completely responded to the treatment and had no palpable tumors left.
6-8 week old female C57BL/6J-hCD137 mice [B-hTNFRSF9(CD137) mice; Biocytogen] were implanted subcutaneously with 1×10^6 MC38 cells. Mice were randomized into treatment groups (n=6/cohort) when average tumor volumes reached around 76 mm^3 and were treated with daily doses of vehicle (25 mM histidine, 10% sucrose, pH7). BCY12491 treatment was conducted at two different dose levels (5 and 15 mg/kg) and two different dosing schedules (QD: daily; Q3D: every three days). Animals received either 22 QD doses or 8 Q3D doses intraperitoneally (ip). Tumor growth was monitored until tumor reached volumes over 2000 mm^3 or until 73 days after treatment initiation. After Day 73, 5 complete responder animals were re-challenged with MC38 tumor cell implantation alongside with 5 naïve C57BL/6J-hCD137 mice. Tumor growth was monitored for 20 days.
6-8 week old female C57BL/6J-hCD137 mice [B-hTNFRSF9(CD137) mice; Biocytogen] were implanted subcutaneously with 1×10^6 MC38 cells. Mice were randomized into treatment groups (n=6/cohort) when average tumor volumes reached around 92 mm^3 and were treated intravenously with Q3D doses of vehicle (25 mM histidine, 10% sucrose, pH7), 15 mg/kg of BCY12730, BCY12723 or BCY12491 (7 Q3D doses). Tumor growth was monitored for 28 days or until tumors exceeded 2000 mm^3.
6-8 week old female C57BL/6J-hCD137 mice [B-hTNFRSF9(CD137) mice; Biocytogen] were implanted subcutaneously with 1×10^6 MC38 cells. Mice were randomized into treatment groups (n=6/cohort) when average tumor volumes reached around 76 mm^3 and were treated intravenously with twice weekly (BIW) doses of vehicle (25 mM histidine, 10% sucrose, pH7), 5 mg/kg of BCY13048, BCY13050, or BCY12491 (6 BIW doses). Tumor growth was monitored for 28 days or until tumors exceeded 2000 mm^3.

A further data set concerns human PBMCs. The data set can be described thus: Human PBMC co-culture cytokine secretion assay with EphA2-expressing tumor cells (MC38, HT-1080, HT29). In kind it is cell-based. The settings on record: human PBMC-MC38 co-culture. Here is the method: […] MC38 were cultured in Dulbecco's Modified Eagle Medium supplemented with 10% heat inactivated Fetal Bovine Serum (FBS), 1× Penicillin/Streptomycin, 10 mM HEPES, and 2 mM L-Glutamine (referred to as R10 medium). Frozen PBMCs from healthy human donors were thawed and washed once in room temperature PBS with benzonase, and then resuspended in RPMI supplemented with 10% heat inactivated Fetal Bovine Serum (FBS), 1× Penicillin/Streptomycin, 10 mM HEPES, and 2 mM L-Glutamine (herein referred to as R10 medium). 100 μl of PBMCs (1,000,000 PBMCs/ml) and 100 μl of tumor cells (100,000 tumor cells/ml) (Effector:Target cell ratio (E:T) 10:1) were plated in each well of a 96 well flat bottom plate for the co-culture assay. 100 ng/ml of soluble anti-CD3 mAb (clone OKT3) was added to the culture on day 0 to stimulate human PBMCs. Test, control compounds, or vehicle controls were diluted in R10 media and 50 μL was added to respective wells to bring the final volume per well to 250 μL. Plates were covered with a breathable film and incubated in a humidified chamber at 37° C. with 5% CO2 for two days. […] Briefly, the standards and samples were added to a black 96 well plate. Microparticle cocktail (provided in Luminex kit, R&D Systems) was added and shaken for 2 hours at room temperature. The plate was washed 3 times using a magnetic holder. Biotin cocktail was then added to the plate and shaken for 1 hour at RT. The plate was washed 3 times using a magnetic holder. Streptavidin cocktail was added to the plate and shaken for 30 minutes at RT. The plates were washed 3 times using a magnetic holder, resuspended in 100 μL of wash buffer, shaken for 2 minutes at RT, and read using the Luminex 2000. Raw data were analyzed using built-in Luminex software to generate standard curves and interpolate protein concentrations, all other data analyses and graphing were performed using Excel and Prism software. Data represents one study with three independent donor PBMCs tested in experimental duplicates.
Similarly, PBMCs from healthy donors were co-cultured with EphA2 expressing cancer cells (MC38 and HT-1080) at a ratio of 5:1 in presence of anti-CD3 and BCY13272. […]

The target in the next data set is CD137 (Homo sapiens, UniProt Q07011). Nature of the data set: CD137 reporter assay (Promega, Jurkat cells) in co-culture with EphA2-expressing tumor cells (A549, PC3, HT29). The arrangement: host or cells: Jurkat reporter cells. The format is cell-based. Particulars: for Emax (fold induction over background): CD137 reporter coculture assay with PC3 tumor cells; for EC50: EC50, CD137 reporter coculture assay with PC3 tumor cells. In a few lines: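 Readout is Bio-Glo luminescence after 6 h, 37° C co-culture of CD137 reporter Jurkat cells, target tumor cells (EphA2: A549, PC3, HT29; PD-L1: RKO) and titrated test articles in 1% FBS RPMI. EC50 (nM) and maximal induction come from fold change over untreated co-culture.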
CD137, sequence (Q07011 24-255): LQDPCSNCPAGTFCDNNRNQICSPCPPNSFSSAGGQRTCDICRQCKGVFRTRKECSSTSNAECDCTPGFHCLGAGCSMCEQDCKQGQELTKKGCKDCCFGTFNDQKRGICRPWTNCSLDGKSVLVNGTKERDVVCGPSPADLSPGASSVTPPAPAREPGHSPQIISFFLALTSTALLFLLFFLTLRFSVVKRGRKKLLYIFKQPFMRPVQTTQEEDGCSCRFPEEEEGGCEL
In general terms: In a reporter assay the amount or activity of a reporter protein is the signal.

The subject of the next data set is MC38 tumor tissue. The data set can be described thus: Immune response in MC38 tumors (nCounter transcriptional analysis, CD8 IHC). In kind it is in vivo, C57BL/6J-hCD137 mice. Particulars: Q3D x3, peptides 15 mg/kg IV, anti-CD137 2 mg/kg ip. Here is the method:
6-8 week old female C57BL/6J-hCD137 mice [B-hTNFRSF9(CD137) mice; Biocytogen] were implanted subcutaneously with 1×10^6 MC38 cells. Mice were randomized into treatment groups when average tumor volumes reached around 240 mm^3 and were treated (n=6/treatment cohort) with vehicle (25 mM histidine, 10% sucrose, pH7) intravenously (IV), 15 mg/kg BCY12491 (EphA2: CD137 1:2 Heterotandem Complex) IV, 15 mg/kg BCY13626 (non-binding control for EphA2) IV or 2 mg/kg Anti-CD137 (urelumab analogue) intraperitoneally. All treatments were given Q3D for three doses and tumor tissues were harvested 1 hour after the last dose. Part of the tumor tissue was used for RNA isolation for transcriptional analysis and a part of the tumor tissue was used for formalin fixed paraffin embedded (FFPE) sample preparation for immunohistochemical (INC) analysis. RNA was isolated from tumor tissues using RNAeasy kit [Qiagen] and transcriptional analysis was performed using nCounter Mouse PanCancer IO 360 panel (Nanostring) from 100 ng RNA/tumor. Data was analysed using the nSolver Analysis Software (Nanostring). CD8+ tumor infiltrating cells were stained in FFPE tissue sections using anti-mouse CD8 antibody (Abcam, #ab217344) and Ventana Discovery OmniMap anti Rabbit-HRP Kit (Ventana #760 4310).

Read-outs that look alike come from different tables or passages of the source. Starred links: 1 amine or outer side, 2 acyl side, 3 side chain; linkers in the order of their positions; H or OH if unused. Positions of bridges follow the written chain, without caps; N, C: chain ends. Non-standard residues stand in square brackets, D forms with d. Chains are numbered I, II in the order given. ξ: configuration not given here. X1 = O=C(CCOCCOCCOCCN(CCOCCOCCOCCn1cc(CCC(=O)[*:2])nn1)CCOCCOCCOCCn1cc(CCC(=O)[*:3])nn1)[*:1]; X2 = O=C(CCSCCC(=O)[*:1])N1CN(C(=O)CC[*:2])CN(C(=O)CC[*:3])C1; TATA = O=C(CC[*:1])N1CN(C(=O)CC[*:2])CN(C(=O)CC[*:3])C1; Hyp = O=C(O)[C@@H]1C[C@@H](O)CN1; hArg = N=C(N)NCCCC[C@H](N)C(=O)O; tBuAla = CC(C)(C)C[C@H](N)C(=O)O; Cba = N[C@@H](CC1CCC1)C(=O)O; Nle = CCCC[C@H](N)C(=O)O; ξP = O=C(O)C1CCCN1; Mpa = O=C(O)CCS

As a reminder, the EC50 is the concentration that produces a half-maximal response. For “I: A[hArg]DC[Hyp][Cba]VN[ξP]LCLHP[dD]W[hArg]C-NH2 / II: Ac-C[tBuAla]PE[dK]PYCFADPY[Nle]CA-NH2 / III: Ac-C[tBuAla]PE[dK]PYCFADPY[Nle]CA-NH2 (linker I:4-I:11-I:18, II:1-II:8-II:15, III:1-III:8-III:15 via TATA; linker I:N-II:5-III:5 via X1) [BCY13050]”, in data set [1] (male, SD, plasma), the half-life is 3.3 h, the clearance was determined as 11 mL/min/kg and the Vd was 1.4 L/kg. For the same substance, the complete responses in the data set on MC38 tumors (5 mg/kg IV BIW, 6 doses) is given as 3 out of 6. Moreover, the EC50 in the data set on human PBMCs (Donor 1, 72 h incubation, read-out: Donor 1 EC50 of IFNγ secretion) was 0.38 nM. In addition, the EC50 with human PBMCs (Donor 2, 72 h incubation, read-out: Donor 2 EC50 of IFNγ secretion) came to 0.19 nM. Besides, on CD137, the “Emax (fold induction over background)” value turned out to be 42.46 and a half-maximal response (EC50) required 0.09 nM.

In the case of “I: A[hArg]DC[Hyp]LVNPLCLHP[dD]W[hArg]C-NH2 / II: [Mpa][tBuAla]PE[dK]PYCFADPY[Nle]C-NH2 / III: [tBuAla]PE[dK]PYCFADPY[Nle]C-NH2 (linker I:4-I:11-I:18, II:1-II:8-II:15 via TATA; linker I:N-II:5-III:4 via X1; linker III:N-III:7-III:14 via X2) [BCY12730]”, in data set [1] (in vivo), the half-life is 2 h, the clearance came to 18 mL/min/kg and the Vd was determined as 2.6 L/kg. The complete responses in the data set with MC38 tumors (15 mg/kg IV Q3D, 7 doses) was 3 out of 6. In the data set with human PBMCs (Donor 1, 48 h incubation, read-out: Donor 1 EC50 of IFNγ secretion), the EC50 turned out to be 0.13 nM. Also, in the data set on human PBMCs (Donor 2, 48 h incubation, read-out: Donor 2 EC50 of IFNγ secretion), the EC50 came to 0.19 nM. At CD137, the “Emax (fold induction over background)” value was found to be 61.73 and the EC50 was determined as 0.25 nM.

With “anti-CD137 antibody: Anti-CD137 (urelumab analogue)”, in the data set with MC38 tumor tissue, the “CD8+ cell infiltration in tumor (IHC)” value is listed as “Some increase in CD8+ cell infiltration”. Besides, in the data set on MC38 tumor tissue (vs vehicle), the “T cell score in tumor tissue” value was “increased significantly” and the “cytotoxic cell score in tumor tissue” value was “increased significantly”.
